Laboratory results: patent US20230384333A1 (priority 2020, published 2023)
Several values for one entry are separate records, joined by “and”; a condition that tells them apart may be missing. Equal entries are not always repeated. Entries after “also recorded” stand apart in the source; their conditions may differ.

How the values were obtained:
psychLight1 [1] = biological target: T1, psychLight1 (Homo sapiens, UniProt P28223, E264Q/I181A); test: cell-based; type: cell-based; set-up: fluorescence intensity change, confocal with psychLight1: dose or concentration left out as unconfirmed; conditions: n=3
Method: HEK293T cells were grown in DMEM, supplemented with fetal bovine serum (FBS) and penicillin-streptomycin. Cells were trans-fected with Effectene according to the manufacturer's instructions. Prior to imaging, cells were washed with Hank's Balanced Salt Solution (HBSS) supplemented with 2 mM MgCl2 and 2 mM CaCl2). All images were collected in HBSS containing Mg^2+ and Ca^2+.
HEK293T cells were plated and transfected concurrently 24 h prior to each experiment using the QIAGEN Effectene Transfection
Dose-response experiments were performed using an Automate Perfusion System. Cells (HEK293T) were grown on 12 mm cover-slips and transfected with psychLight1. The coverslips were then placed into a coverslip holder and washed with 5 mL of HBSS containing 2 mM MgCl2 and 2 mM CaCl2). Cells were perfused first with 5 mL of 0.1% DMSO, then drugs in ascending concentrations from 1 pM to […] were added, with the concentration of DMSO being held constant at 0.10%. […] For the competition studies described in FIG. 19, HEK293T cells were prepared as described above; however, the cells were first exposed to 5 mL of 0.2% DMSO. […] Analysis was performed by taking 3 ROIs on the cell membrane using ImageJ and calculating the mean intensity for each ROI across the time-points. Finally, the DF/F was calculated using the average of the baseline (0.1 or 0.2% DMSO) and the average intensity between each dosage over the average of the baseline.

psychLight1 [2] = biological target: T1, psychLight1; type: cell-based
psychLight = test: Schild regression analysis in PSYLI2 cells; type: cell-based, human
Method: During imaging, […] of imaging media were added to each well of the assay plate. Wells were then imaged on a Lecia DMi8 using Leica Application Suite X (V3.6.0.20104) at 40×(N.A.=0.6) with 5 regions of interest (ROI) taken per well using the default 5 ROI pattern for each well with no bias to location and no overlap of the ROIs (exposure=350 ms, LED power=80%). Next, […] from the treatment plate was transferred to the assay plate for a final 1:1000 dilution of drug. All final drug treatments contained 0.1% DMSO. After 5 min of incubation, the same sites were re-imaged using the same settings. The data analysis method was the same as in agonist and antagonist mode.

psychLight2 [3] = test: PSYLI2 high-content imaging, agonist mode; type: cell-based, human; set-up: dose or concentration left out as unconfirmed
psychLight2 [4] = test: PSYLI2 high-content imaging, agonist mode; type: cell-based, human; conditions: 10 μM compound, hit limit 1 SD from vehicle
Method: (§1) High-Content Imaging Experiments. Glass bottom 96-well plates (P96-1.5H-N, Cellvis) were coated with 50 μg/mL of poly-D-lysine (Sigma, P6407-5MG) and 10 μg/mL laminin (Sigma, L2020) overnight in an incubator (37° C., 5% CO2). […] Immediately prior to an experiment, stock solutions of drugs in DMSO (10 mM) were first diluted 1:100 in imaging media distributed across an empty 96-well plate (treatment plate) in triplicates following a randomized plate map. […] Cells grown in a separate 96-well plate (assay plate) were gently washed (3×) with imaging media, and the wells were filled with an appropriate volume of imaging media for the respective experiment (vide infra).
(§2) For agonist mode, […] of imaging media was added to each well of the assay plate. Wells were then imaged on a Lecia DMi8 using Leica Application Suite X (V3.6.0.20104) at 40×(N.A.=0.6) with 5 regions of interest (ROI) taken per well using the default 5 ROI pattern for each well with no bias to location and no overlap of the ROIs (exposure=350 ms, LED power=80%). Next, 20 μL from the treatment plate was transferred to the assay plate for a total 1:1000 dilution of drug (10 μM drug, 0.1% DMSO). […] All final concentrations of drugs were 10 μM (0.1% DMSO) in agonist mode unless stated otherwise. After 5 min of incubation, the same sites were re-imaged using the same settings.
Once imaging was complete, the images were exported, put into a stack, and analyzed using ImageJ Fiji (ver. 1.51v) by using the rectangle function to draw an ROI around the cell membrane (one cell per image) on both the pre- and posttreatment images. ROI sizes within each plate were kept the same and saved to the ROI manager in ImageJ (ctrl+T). Images were then measured using the “multi measure” function in the ROI manager. Measurements were saved and exported. Analysis of the data was done by taking the average of each individual well's ROIs before and after drugs were added. Then the ΔF/F values for each well were calculated using the following equation: […]
as §1, with “Glass” for “High-Content Imaging Experiments. Glass”, “50 µg/mL” for “50 μg/mL”, “10 pg/mL of” for “10 μg/mL”, “were” for “were first”, “in triplicate” for “in triplicates”, “washed 3×” for “washed (3×)”
as §2, with “agonist mode experiments,” for “agonist mode,”, “media were” for “media was”, “20 pL” for “20 μL”, “plate containing” for “plate for”, “a” for “a total”, “(10 pM as the final concentration in” for “(10 μM drug,”
Once imaging was complete, the images were exported, and analyzed using self-written MATLAB script. Script will be deposit on to Github. In short, segmentation was performed on individual images and a mask highlighting the membrane of the HEK293T cells was generated. Pixel intensities were obtained from the mask-highlighted area and exported into Excel. The ΔF/F values for each well were calculated using the following equation: […]

psychLight2 [5] = type: cell-based, human
Method: Compounds unlikely to bind to the sensor should produce minimal to no response in either agonist or antagonist mode. Therefore, a ligand score was calculated as: […]

[6] = tested on: GPCR-based sensors (dopamine, adrenergic, opioid, and serotonin receptors); type: cell-based; conditions: 10 μM AAZ-A-154, agonist and antagonist mode
C57BL/6J mice [7] = test: Head-twitch response (HTR) assay; type: in vivo, mouse; conditions: i.p., multiple doses
Method: (§3) The HTR assay was performed as described previously using both male and female C57BL/6J mice (2 male and 2 female=4 total per treatment). The mice were obtained from The Jackson Laboratory (Sacramento, C.A.) and were approximately 8-weeks old at the time of the experiments. Compounds were administered (5 mL/kg, i.p.) using 0.9% saline as the vehicle. After injection, animals were placed into an empty cage (8″×13″×5″) and HTRs were videotaped, scored later by two blinded observers, and the results were averaged (interpersonnel kappas, Pearson correlation coefficient>0.91). Locomotion was assessed using AnyMaze automated tracking software.

C57BL/6J mice [8] = test: Locomotion assay; type: in vivo, mouse; conditions: i.p., multiple doses
Method: as §3

[9] = tested on: embryonic rat cortical neurons; test: Dendritogenesis (Sholl analysis) in cultured cortical neurons; type: cell-based
Method: For the dendritogenesis experiments conducted using cultured E18 cortical neurons, timed-pregnant Sprague Dawley rats were obtained from Charles River Laboratories (Wilmington, MA). Full culturing, staining, and analysis details were performed as previously described.

C57BL/6J mice [10] = test: Forced swim test (FST); type: in vivo, mouse
VMAT2-HET mice = test: Sucrose preference (anhedonia) test; type: in vivo, mouse
Method: Adult male and female wild-type (WT) and VMAT2 heterozygous (VMAT2-HET) mice were used for these experiments, and they were housed in a humidity- and temperature-controlled room on a 14:10 h light:dark cycle. Mice were housed individually 48 h prior to the experiment with ad libitum access to chow and water. For each day's experiment, bottles were prepared with water or a 1% sucrose solution and these were weighed just prior to the test. Two h prior to the beginning of the dark cycle, the home-cage water bottle was removed. One h after onset of the dark cycle, a pair of bottles was placed into the home-cage. The mouse was given 2 h to drink, after which the bottles were removed and weighed immediately. Approximately 1 h later, the home-cage water bottle was returned. […] Once criterion was achieved, the mouse was presented with the water-sucrose (W-S) pairing. The next day (day 1), mice were administered an acute injection of AAZ-A-154 (15 mg/kg, i.p.) and 5 min later were given the W-S pairing (i.e., day 1). Subsequent W-S pairings were presented on days 2 and 4, and then at 4-day intervals. Preference for the sucrose bottle was calculated as the volume of sucrose consumed minus the volume of water consumed, divided by the total volume of liquid consumed. Preference scores approaching “0” indicated no preference for sucrose or water, whereas positive scores signified a preference for sucrose and negative scores denoted a preference for water.

psychLight2 [11] = type: cell-based, mouse

T1 sequence (P28223 whole entry I181A/E264Q, looked up): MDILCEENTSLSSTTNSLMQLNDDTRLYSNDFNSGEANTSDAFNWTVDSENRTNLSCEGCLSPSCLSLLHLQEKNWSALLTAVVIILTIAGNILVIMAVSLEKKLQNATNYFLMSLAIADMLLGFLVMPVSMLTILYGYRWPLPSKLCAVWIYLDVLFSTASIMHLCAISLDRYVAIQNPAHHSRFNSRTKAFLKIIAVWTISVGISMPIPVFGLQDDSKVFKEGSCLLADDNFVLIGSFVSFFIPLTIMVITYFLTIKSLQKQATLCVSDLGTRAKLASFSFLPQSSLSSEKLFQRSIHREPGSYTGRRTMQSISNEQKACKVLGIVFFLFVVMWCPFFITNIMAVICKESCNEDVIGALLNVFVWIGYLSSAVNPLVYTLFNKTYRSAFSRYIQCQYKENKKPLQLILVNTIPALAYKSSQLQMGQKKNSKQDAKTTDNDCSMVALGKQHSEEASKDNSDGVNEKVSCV

Row | Structure (SMILES) | fluorescence intensity change, confocal with psychLight1 (psychLight1 [1]) [%] | binding shown by competing off 5-HT (psychLight1 [2]) | Schild regression (pA2) outcome (psychLight) | fluorescence intensity change, high content imager with psychLight2 (psychLight2 [3]) [%] | screen outcome in agonist mode (psychLight2 [4]) | ligand score (psychLight2 [5]) | selectivity across receptor-based sensors [6] | head-twitch response (HTR) (C57BL/6J mice [7]) | locomotion (C57BL/6J mice [8]) | dendritic arbor complexity (Sholl analysis) [9] | effect on dendritic growth in presence of ketanserin [9] | immobility in the forced swim test (C57BL/6J mice [10]; 20 mg/kg i.p.) | time course of antidepressant-like effects in FST (C57BL/6J mice [10]; single administration 20 mg/kg, tested 30 min and 1 week later) | sucrose preference of WT animals (VMAT2-HET mice; 15 mg/kg i.p.) | persistence of anti-anhedonic effect (VMAT2-HET mice; VMAT2-HET mice, single injection 15 mg/kg, listed as AAZ, 15 mg/kg) | duration of beneficial behavioral effects (VMAT2-HET mice; rodents, single administration) | sucrose preference of VMAT2-HET mice after dosing (VMAT2-HET mice; single injection 15 mg/kg i.p.) | ΔpL2/tdT (psychLight2 to tdTomato ratio vs baseline) (psychLight2 [11])
1 | COc1ccc2c(CCN(C)C)c[nH]c2c1 [6-MeO, 6-methoxy-N,N-dimethyltrypta-mine] | −1.1±4.6 | capable of binding to the receptor despite the fact that they lack efficacy; also recorded: capable of binding to the receptor despite lacking efficacy; also recorded: can compete off 5-HT resulting in a reduction in psychLight fluorescence | significantly less potent | −3.0±2.7 | – | – | – | – | – | – | – | – | – | – | – | – | – | –
2 | COc1ccc2c(ccn2C[C@@H](C)N(C)C)c1.O=C(O)/C=C/C(=O)O [AAZ-A-154] | – | – | psychLight competitive antagonist | – | decreased the intrinsic fluorescence of psychLight | favorable ligand score | high selectivity for 5-HT2 receptors | did not produce any head-twitches, even up to doses as high as 100 mg/kg; also recorded: failed to produce any head-twitches, even up to doses as high as 100 mg/kg | a high dose of the compound did decrease locomotion; also recorded: a high dose of AAZ-A-154 decreased locomotion; also recorded: only decreases locomotion at a very high dose (100 mg/kg) | increased dendritic arbor complexity; also recorded: increases dendritic arbor complexity to a comparable extent as the fast-acting antidepressant ketamine | abrogated by the 5-HT2A antagonist ketanserin; also recorded: abolished by the 5-HT2R antagonist ketanserin | decreased immobility | both rapid (30 min) and long-lasting (1 week) antidepressant-like effects | had no effect on WT animals; also recorded: did not modify sucrose preference in the WT animals | at least 12 days | > 1 week and > 2 week | sucrose preference that was indistinguishable from WT controls | –
3 | CP(C)C.F[P-](F)(F)(F)(F)F.F[P-](F)(F)(F)(F)F.NCCc1c[nH]c2ccc(O)cc12.[Ru+2].c1ccc(-c2ccccn2)nc1.c1ccc(-c2ccccn2)nc1 [RuBi-5-HT] | – | – | – | – | – | – | – | – | – | – | – | – | – | – | – | – | – | 111.2%±0.7%
